This is an account of results in ChEMBL document CHEMBL5352411, “Synthesis and investigation of the trypanocidal potential of novel 1,2,3-triazole-selenide hybrids” (Eur J Med Chem, 2022).

Where only a bound is given, the exact number is not on record here.

Tested on in one data set: not listed separately
Nature of the data set: Cytotoxicity against HFF-1 cells incubated for 72 hrs by MTS tetrazolium assay. Type of data set: toxicity, cell-based. To be noted: human. For orientation: Tetrazolium assays rely on reduction of a dye to a coloured formazan, in cell work by metabolically active cells.
For the compound `Cc1ccc([Se]Cc2cn(-c3ccccc3)nn2)cc1`, half-maximal cytotoxicity (CC50 at 72 h) was put at 56.1 µM.
The same measure, in the same setting: for `c1ccc(-n2cc(C[Se]c3cccs3)nn2)cc1` the value was 43.1 µM.
With `Fc1ccc([Se]Cc2cn(-c3ccccc3)nn2)cc1`, half-maximal cytotoxicity (CC50 at 72 h) was put at 62.5 µM.
Regarding `c1ccc(-n2cc(C[Se]c3cccc4ccccc34)nn2)cc1`, the CC50 (usually the concentration at which the toxic effect on the cells reaches its halfway point) at 72 h was over 64 µM.
Same read-out and setting: then `FC(F)(F)c1cccc([Se]Cc2cn(-c3ccccc3)nn2)c1`, with over 64 µM; and `Clc1ccc([Se]Cc2cn(-c3ccccc3)nn2)cc1`, with over 64 µM; and `O=C(Cn1ccnc1[N+](=O)[O-])NCc1ccccc1` [BENZNIDAZOLE], with over 64 µM.
`c1ccc([Se]Cc2cn(-c3ccccc3)nn2)cc1` came in with a CC50 at 72 h of 48 µM.
Same read-out and setting: then `Cc1cccc(-n2cc(C[Se]c3ccccc3)nn2)c1`, with over 64 µM; and `COc1ccc(-n2cc(C[Se]c3ccccc3)nn2)cc1`, with over 64 µM.
Same read-out and setting: for `Clc1ccc(-n2cc(C[Se]c3ccccc3)nn2)cc1` the value was over 64 µM; for `Cc1ccc(-n2cc(C[Se]c3ccccc3)nn2)cc1`, over 64 µM.
Compound `Clc1ccccc1-n1cc(C[Se]c2ccccc2)nn1` showed a CC50 at 72 h of over 64 µM.

The subject of another data set is Trypanosoma cruzi. Nature of the data set: Antitrypanosomal activity against intracellular amastigote form of Trypanosoma cruzi Tulahuen expressing Escherichia coli LacZ gene infected in HFF-1 cells incubated for 120 hrs by automated microplate reader. The class given is functional, organism-based. As to conditions: HFF-1, 120 h.
On to `Cc1ccc([Se]Cc2cn(-c3ccccc3)nn2)cc1`, for which half-maximal inhibition (IC50) was put at 7.4 µM.
`c1ccc(-n2cc(C[Se]c3cccs3)nn2)cc1`: the half-maximal inhibitory concentration (IC50) – broadly, the concentration that gives 50% inhibition – stood at 15.6 µM. This IC50 is about 2.1-fold higher than that of the compound before.
For the compound `Cc1ccccc1-n1cc(C[Se]c2ccccc2)nn1`, it took 9.8 µM to reach half-maximal inhibition (IC50). This IC50 lies about 1.6-fold lower than the previous one.
Still for that read-out and setting: for `Cc1cc(C)c([Se]Cc2cn(-c3ccccc3)nn2)c(C)c1` the value was 39.2 µM; for `c1ccc(SCc2cn(-c3ccccc3)nn2)cc1`, 21.2 µM; for `Fc1ccc([Se]Cc2cn(-c3ccccc3)nn2)cc1`, 11.6 µM.
The compound `c1ccc(-n2cc(C[Se]c3cccc4ccccc34)nn2)cc1` gave an IC50 of 3.1 µM.
Same read-out and setting: for `FC(F)(F)c1cccc([Se]Cc2cn(-c3ccccc3)nn2)c1` the value was 5.4 µM.
The same measure, in the same setting: then `Clc1ccc([Se]Cc2cn(-c3ccccc3)nn2)cc1`, with 16.8 µM; and `O=C(Cn1ccnc1[N+](=O)[O-])NCc1ccccc1` [BENZNIDAZOLE], with 2.1 µM.
The same measure, in the same setting: for `c1ccc([Se]Cc2cn(-c3ccccc3)nn2)cc1` the value was 8.2 µM; for `Cc1cccc(-n2cc(C[Se]c3ccccc3)nn2)c1`, 9.2 µM.
Turning to `COc1ccc(-n2cc(C[Se]c3ccccc3)nn2)cc1`, it took 12.7 µM to reach half-maximal inhibition (IC50).
The same measure, in the same setting: for `Clc1ccc(-n2cc(C[Se]c3ccccc3)nn2)cc1` the value was 11.5 µM; for `Cc1ccc(-n2cc(C[Se]c3ccccc3)nn2)cc1`, 9.3 µM; for `O=[N+]([O-])c1ccc(-n2cc(C[Se]c3ccccc3)nn2)cc1`, over 64 µM.
Take `Clc1ccccc1-n1cc(C[Se]c2ccccc2)nn1`: 15.2 µM corresponded to half-maximal inhibition (IC50). In other words, the double-digit micromolar range.

Tested on in a further data set: not listed separately
Put plainly: Selectivity index, ratio of CC50 for HFF-1 cells to IC50 for intracellular amastigote form of Trypanosoma cruzi Tulahuen expressing Escherichia coli LacZ gene infected in HFF-1 cells. As to conditions: human, read-out: Selectivity Index. Type of data set: toxicity.
Take `Cc1ccc([Se]Cc2cn(-c3ccccc3)nn2)cc1`: the selectivity ratio turned out to be 8.4.
`c1ccc(-n2cc(C[Se]c3cccs3)nn2)cc1`: the selectivity ratio amounted to 2.8.
Same read-out and setting: for `Cc1ccccc1-n1cc(C[Se]c2ccccc2)nn1` the value was over 6.5; for `Fc1ccc([Se]Cc2cn(-c3ccccc3)nn2)cc1`, over 5.5; for `c1ccc(-n2cc(C[Se]c3cccc4ccccc34)nn2)cc1`, over 20.6.
Still for that read-out and setting: for `FC(F)(F)c1cccc([Se]Cc2cn(-c3ccccc3)nn2)c1` the value was over 11.9.
Still for that read-out and setting: then `Clc1ccc([Se]Cc2cn(-c3ccccc3)nn2)cc1`, with 3.3; and `O=C(Cn1ccnc1[N+](=O)[O-])NCc1ccccc1` [BENZNIDAZOLE], with over 30.5.
As for `c1ccc([Se]Cc2cn(-c3ccccc3)nn2)cc1`, the selectivity ratio was found to be 5.9.
As to `Cc1cccc(-n2cc(C[Se]c3ccccc3)nn2)c1`, the selectivity ratio was over 7.
Still for that read-out and setting: for `COc1ccc(-n2cc(C[Se]c3ccccc3)nn2)cc1` the value was over 5.
Still for that read-out and setting: then `Clc1ccc(-n2cc(C[Se]c3ccccc3)nn2)cc1`, with over 5.6; and `Cc1ccc(-n2cc(C[Se]c3ccccc3)nn2)cc1`, with over 6.9; and `Clc1ccccc1-n1cc(C[Se]c2ccccc2)nn1`, with over 4.2.

Tested on in the next data set: not listed separately
Put plainly: Electrochemical behavior of the compound assessed as oxidation onset potential by cyclic voltammetry analysis relative to normal hydrogen electrode. Type of data set: physicochemical.
Settings: not given
Regarding `Cc1ccc([Se]Cc2cn(-c3ccccc3)nn2)cc1`, the Ep amounted to 0.81 V.
Same read-out and setting: then `c1ccc(-n2cc(C[Se]c3cccs3)nn2)cc1`, with 1.22 V; and `Cc1ccccc1-n1cc(C[Se]c2ccccc2)nn1`, with 0.83 V.
The same measure, in the same setting: for `Cc1cc(C)c([Se]Cc2cn(-c3ccccc3)nn2)c(C)c1` the value was 1.03 V; for `c1ccc(SCc2cn(-c3ccccc3)nn2)cc1`, 1.06 V.
Still for that read-out and setting: then `Fc1ccc([Se]Cc2cn(-c3ccccc3)nn2)cc1`, with 0.76 V; and `c1ccc(-n2cc(C[Se]c3cccc4ccccc34)nn2)cc1`, with 0.96 V; and `FC(F)(F)c1cccc([Se]Cc2cn(-c3ccccc3)nn2)c1`, with 0.97 V.
For the compound `Clc1ccc([Se]Cc2cn(-c3ccccc3)nn2)cc1`, the Ep is listed as 0.84 V.
As for `c1ccc([Se]Cc2cn(-c3ccccc3)nn2)cc1`, the Ep is reported as 0.79 V.
Same read-out and setting: then `Cc1cccc(-n2cc(C[Se]c3ccccc3)nn2)c1`, with 0.84 V; and `COc1ccc(-n2cc(C[Se]c3ccccc3)nn2)cc1`, with 0.75 V.
Still for that read-out and setting: for `Clc1ccc(-n2cc(C[Se]c3ccccc3)nn2)cc1` the value was 0.81 V; for `Cc1ccc(-n2cc(C[Se]c3ccccc3)nn2)cc1`, 0.85 V; for `O=[N+]([O-])c1ccc(-n2cc(C[Se]c3ccccc3)nn2)cc1`, 0.9 V.
Still for that read-out and setting: then `Clc1ccccc1-n1cc(C[Se]c2ccccc2)nn1`, with 0.83 V.

Tested on in another data set: not listed separately
Nature of the data set: Electrochemical behavior of the compound assessed as reduction onset potential by cyclic voltammetry analysis relative to normal hydrogen electrode. Type of data set: physicochemical.
Settings: not given
On to `c1ccc(-n2cc(C[Se]c3cccc4ccccc34)nn2)cc1`, for which the Ep is reported as -0.82 V.
Still for that read-out and setting: for `FC(F)(F)c1cccc([Se]Cc2cn(-c3ccccc3)nn2)c1` the value was -0.92 V; for `O=[N+]([O-])c1ccc(-n2cc(C[Se]c3ccccc3)nn2)cc1`, -1.11 V.
